Assay results reported in PMC8286840, “Identifying SARS-CoV-2 antiviral compounds by screening for small molecule inhibitors of Nsp3 papain-like protease” (Biochemical Journal, 2021).
Counter-ions that a name gives are not always drawn. Like-named read-outs stand apart in the source and are kept apart here.

Assays:
[1] = biological target: T1, SARS-CoV-2 PLpro (nsp3 1564–1878) (Severe acute respiratory syndrome coronavirus 2, UniProt P0DTD1); assay: biochemical; parameters: FRET-quenched peptide (Pro3) cleavage by PLpro, 10 min pre-incubation, slope over 20 min, normalised to no-compound control; conditions: read-out: % of control remaining
[2] = biological target: T1, SARS-CoV-2 PLpro (nsp3 1564–1878); assay: biochemical; parameters: FRET-quenched peptide (Pro3) cleavage by PLpro, 10 min pre-incubation, slope over 20 min, normalised to no-compound control; conditions: read-out: % of control remaining; remark: listed apart in the source

## CCCC1O[C@@H]2C[C@H]3[C@@H]4CCC5=CC(=O)C=C[C@]5(C)[C@H]4[C@@H](O)C[C@]3(C)[C@]2(C(=O)CO)O1 (stereo partly shown) [Budesonide]
[1]; Well no.=81, low concentration screen
  remaining activity at 1.25 µM: 105%
[1]; Well no.=6659, low concentration screen
  remaining activity at 1.25 µM: 98.6%
[2]; Well no.=81, high concentration screen
  remaining activity at 3.75 µM: 102%
[2]; Well no.=6659, high concentration screen
  remaining activity at 3.75 µM: 98.7%

## CCCCOc1ccc(CC(=O)NO)cc1 [Bufexamac]
[1]; Well no.=5265, low concentration screen
  remaining activity at 1.25 µM: 101%
[2]; Well no.=5265, high concentration screen
  remaining activity at 3.75 µM: 99.5%

## COc1cc(OC)c(C(=O)CCCN2CCCC2)c(OC)c1 [Buflomedil HCl]
[1]; Well no.=5296, low concentration screen
  remaining activity at 1.25 µM: 101%
[2]; Well no.=5296, high concentration screen
  remaining activity at 3.75 µM: 97.4%

## CCCCNc1cc(C(=O)O)cc(S(N)(=O)=O)c1Oc1ccccc1 [Bumetanide]
[1]; Well no.=29, low concentration screen
  remaining activity at 1.25 µM: 103%
[1]; Well no.=1909, low concentration screen
  remaining activity at 1.25 µM: 100%
[2]; Well no.=29, high concentration screen
  remaining activity at 3.75 µM: 96.8%
[2]; Well no.=1909, high concentration screen
  remaining activity at 3.75 µM: 99.1%

## CCCCN1CCCCC1C(=O)Nc1c(C)cccc1C (stereo not shown) [Bupivacaine]
[1]; Well no.=2052, low concentration screen
  remaining activity at 1.25 µM: 105%
[2]; Well no.=2052, high concentration screen
  remaining activity at 3.75 µM: 103%

## CC(NC(C)(C)C)C(=O)c1cccc(Cl)c1 (stereo not shown) [Bupropion hydrochloride]
[1]; Well no.=37, low concentration screen
  remaining activity at 1.25 µM: 101%
[2]; Well no.=37, high concentration screen
  remaining activity at 3.75 µM: 100%

## CCNC(=O)[C@@H]1CCCN1C(=O)[C@H](CCCNC(=N)N)NC(=O)[C@H](CC(C)C)NC(=O)[C@@H](COC(C)(C)C)NC(=O)[C@H](Cc1ccc(O)cc1)NC(=O)[C@H](CO)NC(=O)[C@H](Cc1c[nH]c2ccccc12)NC(=O)[C@H](Cc1cnc[nH]1)NC(=O)[C@@H]1CCC(=O)N1 [Buserelin (Acetate)]
[1]; Well no.=8151, low concentration screen
  remaining activity at 1.25 µM: 106%
[2]; Well no.=8151, high concentration screen
  remaining activity at 3.75 µM: 104%

## O=C1CC2(CCCC2)CC(=O)N1CCCCN1CCN(c2ncccn2)CC1 [Buspirone (hydrochloride)]
[1]; Well no.=8249, low concentration screen
  remaining activity at 1.25 µM: 101%
[2]; Well no.=8249, high concentration screen
  remaining activity at 3.75 µM: 99.1%

## O=C1CC2(CCCC2)CC(=O)N1CCCCN1CCN(c2ncccn2)CC1 [Buspirone hydrochloride]
[1]; Well no.=319, low concentration screen
  remaining activity at 1.25 µM: 98.2%
[2]; Well no.=319, high concentration screen
  remaining activity at 3.75 µM: 99.4%

## O=C(/C=C/c1ccc(O)c(O)c1)c1ccc(O)cc1O [Butein]
[1]; Well no.=3272, low concentration screen
  remaining activity at 1.25 µM: 96.3%
[2]; Well no.=3272, high concentration screen
  remaining activity at 3.75 µM: 97.5%

## CN(Cc1ccc(C(C)(C)C)cc1)Cc1cccc2ccccc12 [Butenafine HCl]
[1]; Well no.=5371, low concentration screen
  remaining activity at 1.25 µM: 98.1%
[2]; Well no.=5371, high concentration screen
  remaining activity at 3.75 µM: 97.8%

## CN(Cc1ccc(C(C)(C)C)cc1)Cc1cccc2ccccc12 [Butenafine]
[1]; Well no.=1876, low concentration screen
  remaining activity at 1.25 µM: 97.2%
[2]; Well no.=1876, high concentration screen
  remaining activity at 3.75 µM: 94.3%

## CCCCS(=N)(=O)CCC(N)C(=O)O (stereo not shown) [Buthionine sulfoximine]
[1]; Well no.=4086, low concentration screen
  remaining activity at 1.25 µM: 101%
[2]; Well no.=4086, high concentration screen
  remaining activity at 3.75 µM: 100%

## Clc1ccc(CCC(Cn2ccnc2)Sc2c(Cl)cccc2Cl)cc1 (stereo not shown) [Butoconazole nitrate]
[1]; Well no.=2204, low concentration screen
  remaining activity at 1.25 µM: 96.3%
[2]; Well no.=2204, high concentration screen
  remaining activity at 3.75 µM: 93.9%

## CCCC(=O)OCC[N+](C)(C)C [Butyrylcholine]
[1]; Well no.=1738, low concentration screen
  remaining activity at 1.25 µM: 103%
[2]; Well no.=1738, high concentration screen
  remaining activity at 3.75 µM: 100%

## CN1C(=O)C(Cc2ccc3ccccc3c2)N=C(c2ccc(O)cc2)c2cc(Cl)ccc21 (stereo not shown) [Bz 423]
[1]
  remaining activity at 1.25 µM: 96.5%
[2]
  remaining activity at 3.75 µM: 93.6%

## CCCCCCCCCCCCC/C=C/[C@@H](O)[C@H](CO)NC(C)=O [C2 Ceramide]
[1]; Well no.=4363, low concentration screen
  remaining activity at 1.25 µM: 108%
[2]; Well no.=4363, high concentration screen
  remaining activity at 3.75 µM: 104%

## CCCCCCCCCCCCCC[C@@H](O)[C@@H](O)[C@@H](CO)NC(C)=O [C2 Phytoceramide]
[1]; Well no.=3531, low concentration screen
  remaining activity at 1.25 µM: 99.2%
[2]; Well no.=3531, high concentration screen
  remaining activity at 3.75 µM: 104%

## CCCCCCCCCCCCC/C=C/[C@@H](O)[C@H](CO)NC(=O)CCCCC [C6 Ceramide]
[1]; Well no.=3123, low concentration screen
  remaining activity at 1.25 µM: 100%
[2]; Well no.=3123, high concentration screen
  remaining activity at 3.75 µM: 101%

## CCCCCCCCCCCCC/C=C/[C@@H](O)[C@H](CO)NC(=O)CCCCCCC [C8 Ceramide]
[1]; Well no.=4255, low concentration screen
  remaining activity at 1.25 µM: 100%
[2]; Well no.=4255, high concentration screen
  remaining activity at 3.75 µM: 99.1%

## CCCCCCCCCCCCC/C=C/[C@@H](O)[C@H](CO)NCCCCCCCC [C8 Ceramine]
[1]; Well no.=4409, low concentration screen
  remaining activity at 1.25 µM: 101%
[2]; Well no.=4409, high concentration screen
  remaining activity at 3.75 µM: 95.2%

## CCCCCCCCCCCCCCC[C@@H](O)[C@H](CO)NC(=O)CCCCCCC [C8 Dihydroceramide]
[1]; Well no.=4395, low concentration screen
  remaining activity at 1.25 µM: 99.8%
[2]; Well no.=4395, high concentration screen
  remaining activity at 3.75 µM: 99.1%

## CCCCCCCCCCCCC/C=C/[C@@H](O)[C@H](CO)NC(=O)CCCCCCCCCCCCCCC [C16 Ceramide]
[1]; Well no.=4397, low concentration screen
  remaining activity at 1.25 µM: 101%
[2]; Well no.=4397, high concentration screen
  remaining activity at 3.75 µM: 101%

## CC1=NN(c2ccc(C(=O)O)cc2)C(=O)/C1=C\c1ccc(-c2cc(C)c(C)cc2[N+](=O)[O-])o1 [C646]
[1]; Well no.=5456, low concentration screen
  remaining activity at 1.25 µM: 98.3%
[2]; Well no.=5456, high concentration screen
  remaining activity at 3.75 µM: 101%

## CCCNC(=O)[C@H]1O[C@@H]1C(=O)N[C@H](C(=O)N1CCC[C@H]1C(=O)OC)[C@@H](C)CC [CA-074 methyl ester]
[1]; Well no.=8166, low concentration screen
  remaining activity at 1.25 µM: 105%
[2]; Well no.=8166, high concentration screen
  remaining activity at 3.75 µM: 100%

## CCCNC(=O)[C@H]1O[C@@H]1C(=O)N[C@H](C(=O)N1CCC[C@H]1C(=O)O)[C@@H](C)CC [CA-074]
[1]; Well no.=8272, low concentration screen
  remaining activity at 1.25 µM: 104%
[2]; Well no.=8272, high concentration screen
  remaining activity at 3.75 µM: 101%

## O=C1/C(=C/c2ccc(O)c(Br)c2)CN(Cc2ccccc2)C/C1=C\c1ccc(O)c(Br)c1 [CARM1-IN-1]
[1]; Well no.=8030, low concentration screen
  remaining activity at 1.25 µM: 94.4%
[2]; Well no.=8030, high concentration screen
  remaining activity at 3.75 µM: 88%

## OCCNC1CCCc2c1[nH]c1ccc(-c3ccccc3)cc21 (stereo not shown) [CASIN]
[1]; Well no.=7373, low concentration screen
  remaining activity at 1.25 µM: 102%
[2]; Well no.=7373, high concentration screen
  remaining activity at 3.75 µM: 105%

## CCCCCOc1ccccc1C(O)CC#CCCCC(=O)OC (stereo not shown) [CAY10514]
[1]; Well no.=4293, low concentration screen
  remaining activity at 1.25 µM: 100%
[2]; Well no.=4293, high concentration screen
  remaining activity at 3.75 µM: 98.7%

## NC(=O)c1cc(N2CC2)c([N+](=O)[O-])cc1[N+](=O)[O-] [CB 1954]
[1]; Well no.=189, low concentration screen
  remaining activity at 1.25 µM: 94.7%
[2]; Well no.=189, high concentration screen
  remaining activity at 3.75 µM: 95.5%

## C[C@H](N)C(=O)N1C[C@H](CCCB(O)O)[C@](N)(C(=O)O)C1 [CB-1158 (dihydrochloride)]
[1]; Well no.=8743, low concentration screen
  remaining activity at 1.25 µM: 100%
[2]; Well no.=8743, high concentration screen
  remaining activity at 3.75 µM: 99.3%

## Nc1ccc(/C=C/c2cccc(C(=O)O)n2)cc1 [CB-7921220]
[1]; Well no.=7759, low concentration screen
  remaining activity at 1.25 µM: 103%
[2]; Well no.=7759, high concentration screen
  remaining activity at 3.75 µM: 95.7%

## c1cc(OCCN2CCCCC2)cc(-c2n[nH]c3ccc(-c4nnc[nH]4)cc23)c1 [CC-401]
[1]; Well no.=3027, low concentration screen
  remaining activity at 1.25 µM: 99.3%
[2]; Well no.=3027, high concentration screen
  remaining activity at 3.75 µM: 96.9%

## COc1ccc(N2C(=O)/C(=C\c3ccc([N+](=O)[O-])s3)SC2=S)cc1 [CCF642]
[1]; Well no.=8774, low concentration screen
  remaining activity at 1.25 µM: 93.3%
[2]; Well no.=8774, high concentration screen
  remaining activity at 3.75 µM: 93.7%

## Cc1ccc(-n2sc(=O)n(Cc3ccc(F)cc3)c2=O)cc1 [CCG 50014]
[1]; Well no.=5215, low concentration screen
  remaining activity at 1.25 µM: 105%
[2]; Well no.=5215, high concentration screen
  remaining activity at 3.75 µM: 102%

## CC(ONC(=O)c1cc(C(F)(F)F)cc(C(F)(F)F)c1)C(=O)Nc1ccc(Cl)cc1 (stereo not shown) [CCG-1423]
[1]; Well no.=7811, low concentration screen
  remaining activity at 1.25 µM: 99.2%
[2]; Well no.=7811, high concentration screen
  remaining activity at 3.75 µM: 101%
